Measured values published in the supplement of paper PMC10307832.

Columns and labels:
Experiment in all cases: relative viability (nuclei count vs DMSO), 5 days (fraction); higher = more cells survive
Bexarotene + Vorinostat = compound: C=C(c1ccc(C(=O)O)cc1)c1cc2c(cc1C)C(C)(C)CCC2(C)C [Bexarotene] + O=C(CCCCCCC(=O)Nc1ccccc1)NO [Vorinostat] (partner 1 µM)
Method in brief: (§1)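 Lung cancer cell lines in 1536-well plates were dosed by pin tool the day after seeding, either with one drug alone or with a fixed anchor-drug dose plus five library-drug doses (not always all listed) in √10 steps. After 5 days, cells were fixed and their nuclei stained in one step (final 0.05% Triton X-100, 1% formaldehyde, 1 ug/ml Hoechst), then counted on 4× images. Relative viability is the nuclei count in treated wells divided by that in vehicle wells. Values are medians of duplicate plates.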

Bexarotene + Pemetrexed = compound: C=C(c1ccc(C(=O)O)cc1)c1cc2c(cc1C)C(C)(C)CCC2(C)C [Bexarotene] + Nc1nc2[nH]cc(CCc3ccc(C(=O)N[C@@H](CCC(=O)O)C(=O)O)cc3)c2c(=O)[nH]1 [Pemetrexed] (partner 0.2 µM)
Method in brief: as §1

Bexarotene + Dasatinib = compound: C=C(c1ccc(C(=O)O)cc1)c1cc2c(cc1C)C(C)(C)CCC2(C)C [Bexarotene] + Cc1nc(Nc2ncc(C(=O)Nc3c(C)cccc3Cl)s2)cc(N2CCN(CCO)CC2)n1 [Dasatinib] (partner 0.075 µM)
Method in brief: as §1

Bexarotene + Palbociclib = compound: C=C(c1ccc(C(=O)O)cc1)c1cc2c(cc1C)C(C)(C)CCC2(C)C [Bexarotene] + CC(=O)c1c(C)c2cnc(Nc3ccc(N4CCNCC4)cn3)nc2n(C2CCCC2)c1=O [Palbociclib] (partner 0.5 µM)
Method in brief: as §1

Row | Cell Line | relative viability (Bexarotene + Vorinostat; first compound 0.08 µM) | relative viability (Bexarotene + Vorinostat; first compound 0.253 µM) | relative viability (Bexarotene + Vorinostat; first compound 0.8 µM) | relative viability (Bexarotene + Vorinostat; first compound 2.53 µM) | relative viability (Bexarotene + Vorinostat; first compound 8 µM) | relative viability (Bexarotene + Pemetrexed; first compound 0.08 µM) | relative viability (Bexarotene + Pemetrexed; first compound 0.253 µM) | relative viability (Bexarotene + Pemetrexed; first compound 0.8 µM) | relative viability (Bexarotene + Pemetrexed; first compound 2.53 µM) | relative viability (Bexarotene + Pemetrexed; first compound 8 µM) | relative viability (Bexarotene + Dasatinib; first compound 0.08 µM) | relative viability (Bexarotene + Dasatinib; first compound 0.253 µM) | relative viability (Bexarotene + Dasatinib; first compound 0.8 µM) | relative viability (Bexarotene + Dasatinib; first compound 2.53 µM) | relative viability (Bexarotene + Dasatinib; first compound 8 µM) | relative viability (Bexarotene + Palbociclib; first compound 0.08 µM) | relative viability (Bexarotene + Palbociclib; first compound 0.253 µM) | relative viability (Bexarotene + Palbociclib; first compound 0.8 µM) | relative viability (Bexarotene + Palbociclib; first compound 2.53 µM) | relative viability (Bexarotene + Palbociclib; first compound 8 µM)
1 | NCI-H441 | 0.679 | 0.805 | 0.628 | 0.716 | 0.547 | 0.268 | 0.319 | 0.26 | 0.257 | 0.249 | 0.857 | 0.701 | 1 | 0.717 | 0.579 | 0.295 | 0.228 | 0.256 | 0.243 | 0.23
2 | NCI-H460 | 0.812 | 0.752 | 0.644 | 0.716 | 0.67 | 0.062 | 0.0605 | 0.058 | 0.0661 | 0.0586 | 0.615 | 0.531 | 0.565 | 0.512 | 0.505 | 0.147 | 0.156 | 0.237 | 0.105 | 0.158
3 | NCI-H520 | 0.781 | 0.695 | 0.778 | 0.775 | 0.716 | 0.799 | 0.663 | 0.717 | 0.797 | 0.708 | 0.223 | 0.211 | 0.204 | 0.215 | 0.187 | 0.271 | 0.182 | 0.198 | 0.229 | 0.207
4 | NCI-H522 | 0.961 | 0.862 | 0.977 | 0.94 | 1.01 | 1.01 | 1.18 | 1.11 | 0.855 | 0.862 | 0.939 | 0.874 | 0.957 | 0.842 | 0.93 | 1.04 | 0.887 | 1.07 | 1.14 | 1.04
5 | NCI-H647 | 0.544 | 0.917 | 0.826 | 0.978 | 0.538 | 0.177 | 0.155 | 0.153 | 0.157 | 0.174 | 0.173 | 0.153 | 0.123 | 0.0933 | 0.114 | 0.467 | 0.358 | 0.443 | 0.367 | 0.369
6 | NCI-H650 | 0.542 | 0.497 | 0.429 | 0.457 | 0.467 | 1.09 | 0.887 | 0.882 | 0.832 | 0.918 | 0.475 | 0.562 | 0.441 | 0.408 | 0.412 | 0.306 | 0.286 | 0.294 | 0.311 | 0.339
7 | NCI-H661 | 0.876 | 0.814 | 0.878 | 0.861 | 0.808 | 1.05 | 0.91 | 0.892 | 0.872 | 0.869 | 1.14 | 0.89 | 0.837 | 0.838 | 0.801 | 0.407 | 0.422 | 0.447 | 0.401 | 0.405
8 | NCI-H838 | 0.764 | 0.767 | 0.742 | 0.585 | 0.693 | 0.275 | 0.254 | 0.272 | 0.251 | 0.249 | 0.299 | 0.301 | 0.339 | 0.346 | 0.381 | 0.23 | 0.209 | 0.176 | 0.216 | 0.245
9 | NCI-H1355 | 0.672 | 0.724 | 0.584 | 0.604 | 0.619 | 1.14 | 1.15 | 0.983 | 1.13 | 1.01 | 0.744 | 0.814 | 0.55 | 0.627 | 0.707 | 0.422 | 0.387 | 0.384 | 0.446 | 0.434
10 | NCI-H1395 | 0.963 | 0.775 | 0.723 | 0.49 | 0.73 | 0.885 | 0.929 | 0.808 | 0.9 | 0.931 | 0.448 | 0.385 | 0.367 | 0.407 | 0.419 | 0.583 | 0.638 | 0.615 | 0.618 | 0.618
11 | NCI-H1437 | 0.814 | 1.01 | 0.886 | 0.872 | 0.84 | 0.352 | 0.302 | 0.338 | 0.296 | 0.322 | 0.445 | 0.6 | 0.567 | 0.411 | 0.434 | 0.317 | 0.306 | 0.294 | 0.291 | 0.286
12 | NCI-H1650 | 0.524 | 0.548 | 0.579 | 0.676 | 0.736 | 0.353 | 0.371 | 0.352 | 0.379 | 0.432 | 0.383 | 0.38 | 0.408 | 0.333 | 0.296 | 0.355 | 0.285 | 0.279 | 0.271 | 0.282
13 | NCI-H1651 | 0.693 | 0.604 | 0.62 | 0.602 | 0.608 | 0.709 | 0.487 | 0.61 | 0.617 | 0.622 | 0.518 | 0.551 | 0.363 | 0.458 | 0.374 | 0.531 | 0.521 | 0.533 | 0.537 | 0.534
14 | NCI-H1666 | 0.815 | 0.959 | 0.829 | 0.916 | 0.791 | 0.8 | 0.912 | 0.736 | 0.844 | 0.7 | 0.793 | 0.826 | 0.783 | 0.788 | 0.77 | 0.618 | 0.746 | 0.545 | 0.631 | 0.565
15 | NCI-H1734 | 0.779 | 0.834 | 0.808 | 0.65 | 0.657 | 0.438 | 0.419 | 0.454 | 0.361 | 0.363 | 0.478 | 0.484 | 0.412 | 0.411 | 0.46 | 0.333 | 0.33 | 0.292 | 0.282 | 0.318
16 | NCI-H1755 | 0.85 | 0.991 | 0.815 | 0.652 | 0.662 | 0.451 | 0.458 | 0.498 | 0.452 | 0.425 | 0.436 | 0.395 | 0.366 | 0.403 | 0.361 | 0.463 | 0.479 | 0.438 | 0.48 | 0.44
